Data on 15 compounds can be found in patent US20250011311A1, “AMIDO HETEROAROMATIC COMPOUNDS” (AstraZeneca AB, priority 2022, published 2025).

Data set [1] deals with recombinant 17bHSD13 (N2-K300) (Homo sapiens (Human), UniProt Q7Z5P4). Put plainly: In Vitro 17bHSD13 Enzyme Assay. It is filed as biochemical. The following applies: 80 nM 17bHSD13, 0.5 mM NAD, 20 μM Estradiol, 2.5 h; estradiol to estrone by LC-MS/MS. In a few lines:
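Human 17bHSD13 (N2-K300, 80 nM) with 0.5 mM NAD, 20 μM estradiol and varied compound in 50 mM Tris-Cl pH 7.4, 5 mM EDTA, 0.01% DDM. Estrone/(estrone+estradiol) ratio read by LC-MS/MS (APCI, positive MRM). Inhibition normalised to DMSO and a known-inhibitor control; IC50 from curve fit.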

The target of data set [2] is over expressed HSD17β13 in HEK293S cells (Homo sapiens (Human), UniProt Q7Z5P4). Put plainly: In Vitro 17bHSD13 Cell Assay. It is filed as cell-based. The following applies: HEK293S cells over expressing HSD17β13; estradiol to estrone conversion, 18 h, LC-MS/MS; read-out: 17bHSD1713 Cell assay IC50. A digest of the protocol:
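HEK293S cells overexpressing HSD17β13 convert estradiol to estrone; product read by LC-MS/MS (APCI, positive MRM) as AUC ratio estrone/(estrone+estradiol). Effect normalised between DMSO and maximal inhibition by a known inhibitor control; IC50 from curve fit.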

Data set [3] concerns the target over expressed HSD17β9 in HEK293S cells (Homo sapiens (Human), UniProt Q92781). Put plainly: In Vitro 17bHSD9 Cell Assay. In kind it is cell-based. The following applies: HEK293S cells over expressing HSD17β9; retinol to retinal conversion, 18 h, LC-MS/MS; read-out: 17bHSD9 Cell assay IC50. A digest of the protocol: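 HEK293S cells overexpressing HSD17β9 were plated at 10K cells/well in DMEM + 10% FBS and cultured 18 h. Retinol-to-retinal conversion in media was quantified by LC-MS/MS (MRM) as retinal/(retinal + retinol). IC50 was fitted after normalisation to DMSO and full inhibition by a reference inhibitor.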

The target in data set [4] is CYP2C9 (Homo sapiens (Human), UniProt P11712). Put plainly: Assay B: Cytochrome P450 Inhibition 2C9.
CYP2C9, sequence (P11712 whole entry): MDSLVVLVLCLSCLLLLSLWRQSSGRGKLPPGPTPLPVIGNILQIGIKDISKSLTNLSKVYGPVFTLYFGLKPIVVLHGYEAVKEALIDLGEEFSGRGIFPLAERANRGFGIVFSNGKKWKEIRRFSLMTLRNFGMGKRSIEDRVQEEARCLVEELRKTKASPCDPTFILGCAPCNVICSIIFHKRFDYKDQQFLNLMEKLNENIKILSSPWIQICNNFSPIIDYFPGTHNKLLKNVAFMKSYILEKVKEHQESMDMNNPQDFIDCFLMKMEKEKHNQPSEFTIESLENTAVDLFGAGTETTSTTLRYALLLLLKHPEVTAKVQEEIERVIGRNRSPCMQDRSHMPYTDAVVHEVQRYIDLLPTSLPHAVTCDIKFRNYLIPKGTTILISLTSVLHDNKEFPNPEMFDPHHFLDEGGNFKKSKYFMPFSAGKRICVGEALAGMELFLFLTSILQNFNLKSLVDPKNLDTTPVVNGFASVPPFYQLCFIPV
Experimental: A fluorescence-based method in 96-well format was used to determine the inhibition of 2C9 (Crespi, C. L. et al., Microtiter plate assays for inhibition of human, drug-metabolizing cytochromes P450. Anal Biochem 1997, 248 (1), 188-190. DOI: 10.1006/abio.1997.2145, which is incorporated herein by reference). The recombinant human enzymes used were prepared in house, except for CYP2D6 (CYPEX LTD, Dundee, UK). Different coumarin substrates, biotransformed into fluorescent metabolites, were used as probes for each individual CYP. A fluorescence plate reader (SPECTRAMAX GEMINIXS, MOLECULAR DEVICES, Sunnyvale, California, USA) was used to measure the levels of metabolites formed. A dilution series of the test substrates was prepared at eight different concentrations. For each CYP, a mixture of the enzyme, corresponding coumarin substrate, potassium phosphate buffer pH 7.4 and water (concentrations and volumes were CYP-dependent) were added to each well in a black 96-well plate. The test substrates at different concentrations were added. After 10 min pre-incubation, the co-factor NADPH was added to initiate the reaction. After 20-50 min (CYP and substrate-dependent) the reaction was terminated by addition of trisbase/MeCN (20:80). The plates were transferred to the fluorescence plate reader where the wavelengths were set individually for the different coumarin substrates and their respective fluorescent metabolite. The responses were exported to Excel where the IC50 curves were plotted (percent inhibition versus concentration) and IC50 values calculated for each test substrate and enzyme using XL-fit.
Data set [5] deals with recombinant 17bHSD4 (M1-N311) (Homo sapiens (Human), UniProt P51659). As to the kind of experiment: In Vitro 17bHSD4 Enzyme Assay. It is filed as biochemical. The following applies: 40 nM 17bHSD4, 0.125 mM NAD, 15 μM Estradiol, 1.5 h; NADH fluorescence; read-out: 17HSD17b4 Enzyme assay IC50. How it is done:
In Vitro 17bHSD4 Enzyme Assay
10 concentration of compounds (0.2 μl) in DMSO was added to GREINER FLUOTRAC 200 384 well plate (781076) using ECHO dispensing (BECKMAN COULTER). 80 nl of 10 mM Estradiol (SIGMA, E8875) was added using Echo dispensing. The enzyme reaction was initiated by addition, using MULTIDROP COMBI dispensing (THERMO FISHER), of 40 μl of a mix containing recombinant 17bHSD4 (M1-N311) and NAD. Final assay conditions were 40 nM of 17bHSD4, 0.125 mM of NAD, 15 μM Estradiol and various concentrations of compound in buffer (5 mM EDTA (TEKNOVA E0306), 0.01% DDM (AFFYMETRIX D310) in 50 mM Tris-Cl, pH 7.4). After each addition plates were centrifuged for 1 min at 150×g (EPPENDORF, 5810R, A-4-81). NADH formation was measured by fluorescence intensity (FI) (Ex360/Em460) at time zero (to) and at 1.5 h (t1) in a PHERASTAR FSX (BMG LABTECH). FI for each sample was calculated as FI at t1 minus FI at t0.
[…] […] was used for curve fitting and calculation of IC50 values.
Compound effect was calculated with the formula below;
where X represents the effect in the presence of test compound, min is DMSO and max is the maximum inhibition of enzyme using a known inhibitor as control.

Data set [6] concerns human hepatocytes. Put plainly: Assay A: Metabolic Stability in Human Hepatocytes. The following applies: cryopreserved human hepatocytes, 10^6 viable cells/mL, 1 μM compound, 37° C. It is filed as in vitro ADME. How it is done:
Assay A: Metabolic Stability in Human Hepatocytes
Hepatocyte metabolic stability was determined in accordance with the method described by Jacobson et al., An optimized automated assay for determination of metabolic stability using hepatocytes: assay validation, variance component analysis, and in vivo relevance. Assay Drug Dev Technol 2007, 5 (3), 403-415. DOI: 10.1089/adt.2007.059, which is incorporated herein by reference. Cryopreserved hepatocytes at a concentration of 10^6 viable cells/mL were used. After thawing, hepatocytes were incubated for 10 min to warm to 37° C. and test compounds, dissolved in acetonitrile, were added to give a final concentration of 1 μM. At 0.5, 5, 15, 30, 45, 60, 80, 100 and 120 min, the incubation system was mixed and 20 μL aliquots were transferred at each time point to wells in a separate plate filled with 80 μL MeCN to stop the reaction. The quenching plate was then vortexed followed by centrifugation, and supernatants were analyzed by LC-MS/MS. Peak areas were determined from extracted ion chromatograms, and the in vitro intrinsic clearance (in vitro CLint, in μL/min/10^6 cells) of parent compound was calculated from the slope in the regression analysis of the natural logarithm of parent concentration vs time curve.

Each structure is given as a SMILES string. A value given as a limit tells only on which side of the number the result lay.

recombinant 17bHSD4 (M1-N311), sequence (P51659 1-311): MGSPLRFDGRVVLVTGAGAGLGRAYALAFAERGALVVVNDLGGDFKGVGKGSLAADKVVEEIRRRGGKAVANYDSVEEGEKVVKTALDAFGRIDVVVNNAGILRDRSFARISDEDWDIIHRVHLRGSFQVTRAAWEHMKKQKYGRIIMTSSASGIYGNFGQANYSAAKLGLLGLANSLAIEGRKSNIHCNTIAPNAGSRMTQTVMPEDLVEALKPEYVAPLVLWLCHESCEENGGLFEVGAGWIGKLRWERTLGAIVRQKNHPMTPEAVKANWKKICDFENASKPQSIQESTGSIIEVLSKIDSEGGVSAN
recombinant 17bHSD13 (N2-K300), sequence (Q7Z5P4 2-300): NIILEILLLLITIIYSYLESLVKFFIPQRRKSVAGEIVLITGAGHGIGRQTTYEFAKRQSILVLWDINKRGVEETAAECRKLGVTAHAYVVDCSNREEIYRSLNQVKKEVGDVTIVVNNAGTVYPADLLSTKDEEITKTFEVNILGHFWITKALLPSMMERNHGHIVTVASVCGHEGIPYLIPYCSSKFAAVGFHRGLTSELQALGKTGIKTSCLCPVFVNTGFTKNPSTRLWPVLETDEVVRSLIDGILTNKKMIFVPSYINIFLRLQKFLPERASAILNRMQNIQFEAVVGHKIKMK
over expressed HSD17β9 in HEK293S cells, sequence (Q92781 whole entry): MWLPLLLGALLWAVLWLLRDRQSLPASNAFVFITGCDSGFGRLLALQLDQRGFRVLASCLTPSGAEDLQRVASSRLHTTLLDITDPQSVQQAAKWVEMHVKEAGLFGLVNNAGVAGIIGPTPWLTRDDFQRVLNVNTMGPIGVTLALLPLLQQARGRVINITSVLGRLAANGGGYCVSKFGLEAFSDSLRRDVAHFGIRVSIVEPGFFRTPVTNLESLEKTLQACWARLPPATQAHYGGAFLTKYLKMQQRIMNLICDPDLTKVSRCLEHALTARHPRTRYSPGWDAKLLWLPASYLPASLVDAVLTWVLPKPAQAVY
over expressed HSD17β13 in HEK293S cells, sequence (Q7Z5P4 20-300): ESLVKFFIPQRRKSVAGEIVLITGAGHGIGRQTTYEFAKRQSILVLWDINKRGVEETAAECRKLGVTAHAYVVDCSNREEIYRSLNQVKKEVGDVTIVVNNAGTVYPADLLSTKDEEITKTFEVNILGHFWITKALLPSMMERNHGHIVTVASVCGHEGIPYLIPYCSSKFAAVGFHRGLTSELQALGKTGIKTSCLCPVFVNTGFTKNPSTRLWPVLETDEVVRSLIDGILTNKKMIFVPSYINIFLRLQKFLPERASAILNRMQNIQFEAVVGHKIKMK

With `CN(C(=O)c1cc(-c2ccc(F)c(O)c2)no1)c1ccnn1C1CCCCC1` [Example 5, N-(1-Cyclohexyl-1H-pyrazol-5-yl)-3-(4-fluoro-3-hydroxyphenyl)-N-methylisoxazole-5-carboxamide], the IC50 – broadly, the concentration at which inhibition is half-maximal – in data set [1] was 0.093 µM; in data set [2], 2.61 µM; in data set [3] it was > 50 µM; in data set [4] it was 3 µM.
Take `CN(C(=O)c1cc(-c2ccc(F)c(O)c2)on1)c1ccnn1C1CCCCC1` [Example 7, N-(1-Cyclohexyl-1H-pyrazol-5-yl)-5-(4-fluoro-3-hydroxyphenyl)-N-methylisoxazole-3-carboxamide]: the IC50 in data set [1] was 0.083 µM; in data set [5], > 50 µM; in data set [2] it was 5.05 µM; in data set [4] it was 8.4 µM.
As to `O=C(Nc1ccnn1C1CCCCC1)c1cnc(-c2ccc(F)c(O)c2)o1` [Example 12, N-(1-Cyclohexyl-1H-pyrazol-5-yl)-2-(4-fluoro-3-hydroxyphenyl)oxazole-5-carboxamide], the IC50 in data set [1] was 4.33 µM; in data set [2], > 50 µM; in data set [4], 21.2 µM.
As for `N#Cc1c(C(=O)N2CCN(c3ccc4nnc(C(F)(F)F)n4n3)CC2)noc1-c1cc(F)c(F)c(O)c1F` [Example 17, 5-(2,4,5-Trifluoro-3-hydroxyphenyl)-3-(4-(3-(trifluoromethyl)-[1,2,4]triazolo[4,3-b]pyridazin-6-yl)piperazine-1-carbonyl)isoxazole-4-carbonitrile], the figures for the IC50 in data set [1], in data set [2] and in data set [4] were 0.525 µM, 3.1 µM and 0.2 µM, respectively. Moreover, the “Assay A: Human Heps Met Clint GMean CLint (μl/min/1E6)” value in data set [6] stood at 6.5 μl/min/1E6.
The like results for `N#Cc1c(C(=O)N2CCC(O)(C(F)(F)F)CC2)noc1-c1cc(F)c(F)c(O)c1F` [Example 26, 3-(4-Hydroxy-4-(trifluoromethyl)piperidine-1-carbonyl)-5-(2,4,5-trifluoro-3-hydroxyphenyl)isoxazole-4-carbonitrile] were, in that order, 0.278 µM, 2.97 µM, 4.4 µM and 9.2 μl/min/1E6.
For `N#Cc1c(C(=O)N2CC(F)(C3CC3)C2)noc1-c1cc(F)c(F)c(O)c1F` [Example 27, 3-(3-Cyclopropyl-3-fluoroazetidine-1-carbonyl)-5-(2,4,5-trifluoro-3-hydroxyphenyl)isoxazole-4-carbonitrile] the same measures were 0.382 µM, 4.09 µM, 3.1 µM and 14.0 μl/min/1E6.
The like results for `O=C(c1noc(-c2cc(F)c(F)c(O)c2F)n1)N1CCC(Oc2cccnc2)CC1` [Example 70, (4-(Pyridin-3-yloxy)piperidin-1-yl)(5-(2,4,5-trifluoro-3-hydroxyphenyl)-1,2,4-oxadiazol-3-yl)methanone] were, in that order, 0.242 µM, 2.22 µM, 18.4 µM and 12.4 μl/min/1E6.
For the compound `O=C(c1noc(-c2cc(F)c(F)c(O)c2F)n1)N1CCN(c2nc3ccccc3o2)CC1` [Example 72, (4-(Benzo[d]oxazol-2-yl)piperazin-1-yl)(5-(2,4,5-trifluoro-3-hydroxyphenyl)-1,2,4-oxadiazol-3-yl)methanone], the IC50 in data set [1] is 0.062 µM; in data set [5] it was 19 µM; in data set [2], 1.12 µM; in data set [3], > 50 µM.
Take `O=C(c1noc(-c2cc(F)c(F)c(O)c2F)n1)N1CC2CC2(c2ccccc2)C1` (stereo not shown) [Example 77, (1-Phenyl-3-azabicyclo[3.1.0]hexan-3-yl)(5-(2,4,5-trifluoro-3-hydroxyphenyl)-1,2,4-oxadiazol-3-yl)methanone]: the IC50 came out at 0.075 µM in data set [1], 0.17 µM in data set [2] and 0.3 µM in data set [4]. Further, the “Assay A: Human Heps Met Clint GMean CLint (μl/min/1E6)” value in data set [6] is on record as 13.4 μl/min/1E6.
For `COc1ccccc1N1CCN(C(=O)c2noc(-c3cc(F)c(F)c(O)c3F)n2)CC1` [Example 84, (4-(2-Methoxyphenyl)piperazin-1-yl)(5-(2,4,5-trifluoro-3-hydroxyphenyl)-1,2,4-oxadiazol-3-yl)methanone], the IC50 in data set [1] is 0.198 µM; in data set [5], 19.8 µM; in data set [2], 0.3 µM; in data set [3], > 50 µM.
As for `O=C(c1noc(-c2cc(F)c(F)c(O)c2F)n1)N1CCC(c2ccccc2)C1` (stereo not shown) [Example 96, (3-Phenylpyrrolidin-1-yl)(5-(2,4,5-trifluoro-3-hydroxyphenyl)-1,2,4-oxadiazol-3-yl)methanone], the IC50 in data set [1] was determined as 0.047 µM; in data set [5], 18 µM; in data set [2], 0.17 µM; in data set [3] it was 17.3 µM; in data set [4], 1.3 µM.
For `O=C(c1noc(-c2cc(F)c(F)c(O)c2F)n1)N1CC[C@@H](c2ccc(Cl)cc2)C1` [Example 103, (S)-(3-(4-Chlorophenyl)pyrrolidin-1-yl)(5-(2,4,5-trifluoro-3-hydroxyphenyl)-1,2,4-oxadiazol-3-yl)methanone] the same measures were 0.026 µM, 6.5 µM, 0.53 µM, 24.9 µM and 0.8 µM.
Turning to `CC(C)c1noc(C2=CCN(C(=O)c3noc(-c4cc(F)c(F)c(O)c4F)n3)CC2)n1` [Example 107, (4-(3-Isopropyl-1,2,4-oxadiazol-5-yl)-3,6-dihydropyridin-1(2H)-yl)(5-(2,4,5-trifluoro-3-hydroxyphenyl)-1,2,4-oxadiazol-3-yl)methanone], the IC50 in data set [1] is 0.143 µM; in data set [5] it was 10.5 µM; in data set [2], 0.37 µM; in data set [3], 5 µM.
For `C[C@@H]1CN(C(=O)c2nc(-c3cc(F)c(F)c(O)c3F)no2)C[C@H](C)O1` [Example 110, ((2R,6S)-2,6-Dimethylmorpholino)(3-(2,4,5-trifluoro-3-hydroxyphenyl)-1,2,4-oxadiazol-5-yl)methanone] the same measures were 1.01 µM, > 50 µM, 0.24 µM and > 50 µM.
The like results for `C[C@@H]1CN(C(=O)c2noc(-c3cc(O)c(F)c(F)c3)n2)C[C@H](C)O1` [Example 116, (5-(3,4-Difluoro-5-hydroxyphenyl)-1,2,4-oxadiazol-3-yl)((2R,6S)-2,6-dimethylmorpholino)methanone] were, in that order, 0.117 µM, > 50 µM, 0.06 µM and > 50 µM.
